From PMC9811519 (RSC Chemical Biology, 2022)
Where a SMILES comes first, the peptide text is derived from it. The star is where a group is joined. X1 = O=C(O)CN(CCN(CC(=O)O)CC(=O)O)CCN(CC(=O)O)CC(=O)NCCN1C(=O)CC(*)C1=O; Myristoyl = CCCCCCCCCCCCCC(=O)*

How the values were obtained:
[1] = tested on: 5T33 murine myeloma cells; assay: Cell viability, trypan blue exclusion assay
Method: Cell viability was assessed using a trypan blue exclusion assay (Fig. 2(d) and (e)).
(§1) After cell labelling, cells were washed twice with PBS and 300 μL of fresh growth media was added. Uptake efficiency was quantified at this time-point by measuring pellet and supernatant in the γ-counter. At 2, 5 and 20 h after addition of fresh media, cells were washed twice and activity in both the supernatant (original supernatant and washes) and pellet was measured using a γ-counter. Efflux was quantified as the activity of the supernatant divided by the total activity (supernatant + pellet). Cell viability was assessed prior to radiolabelling and at each time point by trypan blue exclusion.[54]

[2] = tested on: NSG male mice; assay: SPECT/CT imaging and ex vivo biodistribution; format: in vivo, mouse
Method: A SPECT/CT scan was acquired for 2 h immediately after injection (Fig. 3(a)).
Animal imaging studies were ethically reviewed by an Animal Welfare & Ethical Review Board at King's College London and carried out in accordance with the Animals (Scientific Procedures) Act 1986 (ASPA) UK Home Office regulations governing animal experimentation. […] Animals were maintained under isoflurane inhalation anaesthesia (2– 2.5% Isoflurane in air) for 2 h post-injection. […] The whole body SPECT scan time was 30 min × 4, (conducted sequentially) with a frame time of 40 s (using a 4-head scanner with 4 × 9 [1.4 mm] pinhole collimators in helical scanning mode) followed by a helical CT (45 kVP X-ray source, 1000 ms exposure time in 180 projections over 7.5 min). After this, animals were allowed to recover. SPECT/CT scans were acquired again, 1 day PI, after which all animals were culled (by increasing the dose of anaesthesia followed by cervical dislocation to confirm death) and organs/tissues harvested, weighed and radioactivity counted using a gamma counter. SPECT/CT images were reconstructed in a 256 × 256 matrix using HiSPECT (ScivisGmbH), a reconstruction software package and visualised and quantified using VivoQuant v.3.0 software (InVicro LLC., Boston, USA).

[3] = tested on: 5T33 murine myeloma cells; assay: Efflux / retention of indium-111 by radiolabelled cells; format: cell-based; conditions: 5T33 cells washed after radiolabelling, γ-counter, SD of 3 biological replicates
Method: To measure efflux, cells were washed after radiolabelling and re-incubated in fresh growth medium for 2–20 h.
as §1

[4] = tested on: 5T33 murine myeloma cells; assay: Comparative cell uptake (cell radiolabelling yield), 10^5 cells, 2 MBq; format: cell-based
Method: Cell pellets were obtained by centrifugation, washed and gamma-counted.
as §1

Row | SMILES | Cells viable after radiolabelling ([1]; 20 h) | Localisation of indium-111 activity by SPECT/CT ([2]; NSG male mice, intravenous via tail vein, 0–2 h PI, one animal per group scanned) | Time to dissociation from cell membranes post-administration of cells ([2]; [^111In]In-DTPA-CTP-labelled 5T33 cells, intravenous, NSG mice, inferred from SPECT) | Cells viable after radiolabelling ([1]; 5T33 cells, 20 h after radiolabelling, trypan blue exclusion, prior to radiolabelling 89 ± 4% (DTPA-CTP group) and 96 ± 0.3% (oxine group), 3 biological replicates) | Indium-111 remaining associated with cells ([3]; 2 h after re-incubation in fresh growth medium) | Indium-111 remaining associated with cells ([3]; 20 h after re-incubation in fresh growth medium) | Cell radiolabelling yield ([4]; 1 × 10^5 5T33 cells in 200 μL, 2 MBq, 37 °C, DTPA-CTP tracer 3 h in serum-containing media, oxine tracer 30 min in serum-free media, washed, γ-counted, SD of 3 biological replicates) | Average radioactivity per cell ([4]; 1 × 10^5 5T33 cells, 2 MBq added radioactivity, corresponds to the cell radiolabelling yield)
1 | CCCCCCCCCCCCCC(=O)NCCCC[C@H](NC(=O)CCCCCCCCCCCCC)C(=O)N[C@@H](CO)C(=O)N[C@@H](CO)C(=O)N[C@@H](CCCCN)C(=O)N[C@@H](CO)C(=O)N1CCC[C@H]1C(=O)N[C@@H](CO)C(=O)N[C@@H](CCCCN)C(=O)N[C@@H](CCCCN)C(=O)N[C@@H](CC(=O)O)C(=O)N[C@@H](CC(=O)O)C(=O)N[C@@H](CCCCN)C(=O)N[C@@H](CCCCN)C(=O)N1CCC[C@H]1C(=O)NCC(=O)N[C@@H](CC(=O)O)C(=O)N[C@@H](CSC1CC(=O)N(CCNC(=O)CN(CCN(CCN(CC(=O)O)CC(=O)O)CC(=O)O)CC(=O)O)C1=O)C(=O)O (some centres unmarked) [[^111In]In-DTPA-CTP, metal not drawn] (Myristoyl-K(Myristoyl)SSKSPSKKDDKKPGDC(X1)-OH) | 88 ± 2% | indium-111 activity in the blood pool and liver | 1 to 2 h | – | – | – | – | –
2 | [111In+3].[O-]c1cccc2cccnc12.[O-]c1cccc2cccnc12.[O-]c1cccc2cccnc12 [[^111In]In-(oxine)3] | – | – | – | 74 ± 6% | 76.0 ± 5.1% | 46.0 ± 9.6% | 20.6 ± 6.1 %AR | 4.1 ± 1.0 Bq per cell
